{"source": "patent US20240245677A1", "about": "“SELECTED COMPOUNDS FOR TARGETED DEGRADATION OF BRD9” (C4 THERAPEUTICS, INC., priority 2021, published 2024)", "key": {"[1]": {"system": "SW982 cells", "test": "SW982 in vitro viability assay (CellTiter-Glo, 144 hours)", "format": "cell-based, human", "description": "SW982 cells were obtained from ATCC (Catalog No. HTB-93, Manassas, VA, USA) and maintained in DMEM medium (Catalog No. 12430112, ThermoFisher Scientific, Waltham, MA, USA) supplemented with 10% fetal bovine serum (FBS) (Catalog No. 16000-044, Gibco, Grand Island, NY, USA) at 37° C. in an atmosphere of 5% CO2 in air. The cells were routinely sub-cultured to maintain cell density between 3×10^5-1.5×10^6 cells/mL, not to exceed 20 passages. The cells growing in an exponential growth phase were harvested by centrifugation at 1000 rpm and resuspended in fresh growth media. An aliquot was diluted 2× with Trypan Blue solution 0.4% (Catalog No. 15250061, ThermoFisher Scientific, Waltham, MA, USA) and cell count was determined. Cell concentration was adjusted with growth media to 1.0×10^4 cells/mL.\nCompound 1 was prepared by dissolving neat compound in DMSO (Catalog No. D8418, Sigma-Aldrich, Inc., St. Louis, MO, USA) to generate 10 mM stock solution and stored at −20° C. 10 mM DMSO stock solution was serially diluted (half log) in DMSO to generate 10-point dose series (10000, 3160, 1000, 316, 100, 31.6, 10, 3.16, 1, 0.32 μM) in acoustic ready 384-well low dead volume microplates (Catalog No. LP-0200, Beckman Coulter Life Sciences, Indianapolis, IN, USA). 50 nL of serially diluted compound solutions were dispensed using the Echo 550 Acoustic Liquid Handler Handler (Beckman Coulter Life Sciences, Indianapolis, IN, USA) in duplicate to each 384-well black TC-treated microplate (Catalog No. 3571, Corning, Glendale, CA, USA). 50 nL DMSO was transferred to all control wells.\n50 μL SW982 cells suspended in growth media at 1.0×10^4 cells/mL (500 cells/well) were dispensed using a Multidrop Combi Reagent Dispenser (Catalog No. 5840300, ThermoFisher Scientific, Waltham, MA, USA) to each well of 384-well black TC-treated microplates containing duplicate concentration range of test compounds and DMSO controls. Plates were spun briefly at 1000 rpm and cells were incubated at 37° C., 5% CO2 for 144 hours. Final concentration of DMSO was 0.1% for all samples.\nAdditional cell plates (TO plates) were prepared by dispensing cells into a blank 384-well black TC-treated microplate to represent cytostatic controls and processed for viability detection immediately after cell dispensing.\nSW982 cell viability was determined based on quantification of ATP using CellTiter-Glo® 2.0 luminescent assay kit (Catalog No. G9243, Promega, Madison, WI, USA), which signals the presence of metabolically active cells. On Day 0 (Time 0) and Day 6 (144 hours) 25 μL CellTiter-Glo® reagent was added to each well of cell plates except the wells in column 24 and the luminescence was measured after 4 hours incubation at room temperature using an EnVision® Multilabel Reader (Catalog No. 2104-0010, Perkin Elmer Inc., Dumfries, VA, USA). Column 24 (cells without CellTiter-Glo® addition) was used as plate background or positive control (P). Cytostatic control value (CT0) was computed from TO plate read using untreated cell signals (UT=0) and positive control signals (PT=0) as below.\nPercent response of compound-treated samples at a time point T were calculated by normalizing the signal with P and DMSO treated negative (N) controls on the same microtiter plate and the CT0 control:\nThe Response % is thus 100% if the CellTiter-Glo® signal equals that of the DMSO treated controls (i.e., normal cell growth), 0% if it equals that of untreated cell at TO (i.e., cytostasis), and −100% if it equals the no CellTiter-Glo® reagent controls (i.e., complete cytotoxicity).\nCurve fit and GI50 determination was performed by 4 parametric logistic fit analysis using software such as GraphPad Prism software (GraphPad Software, LLC, San Diego, CA, USA). The fit was performed through minimization of the root mean squared error between observed and calculated values of the four-parameter logistic equation using the simplex optimizer of the Apache Commons Math library. […]"}, "[2]": {"test": "Crystallization from hot saturated solutions by fast cooling", "format": "physicochemical", "details": "for Comments / XRPD: hot saturated solution", "description": "Samples with no precipitates were put in −20° C. freezer for crystallization. Precipitates were collected by filtration. The solid part (wet cake) were investigated by XRPD."}, "[3]": {"test": "Crystallization by vapor diffusion", "format": "physicochemical", "description": "Based on approximate solubility results, about 20 mg of Compound 1 free form Pattern E was dissolved in the minimal amount of good solvent in 2 mL glass vial without lid. Then the 2 mL lid less vial was placed to 8 mL vial. To the 8 mL vial was added anti-solvent. Then the 8 mL vial was capped and placed at ambient condition. Precipitates were collected by centrifugation filtration through a 0.45 μm nylon membrane filter at 14,000 rpm for 5 min. Solid parts (wet cakes) were investigated by XRPD."}}}
{"smiles": "COc1cc(-c2cn(C)c(=O)c(C)c2C)cc(OC)c1CN1CC[C@H](N2CCN(c3ccc(N[C@H]4CCC(=O)NC4=O)cc3F)CC2)C(F)(F)C1", "note": "[Compound 1, (S)-3-((4-(4-((S)-1-(2,6-dimethoxy-4-(1,4,5-trimethyl-6-oxo-1,6-dihydropyridin-3-yl)benzyl)-3,3-difluoropiperidin-4-yl)piperazin-1-yl)-3-fluorophenyl)amino)-piperidine-2,6-dione]", "values": [{"measurement": "viability at 0.000318 µM", "setting": "[1]; Homo sapiens, SW982, 144 h, 0.318 nM, read-out: % SW982 Viability Relative to Vehicle Control at 144 hr, Mean", "result": 96.2, "unit": "%"}, {"measurement": "viability at 0.00101 µM", "setting": "[1]; Homo sapiens, SW982, 144 h, 1.01 nM, read-out: % SW982 Viability Relative to Vehicle Control at 144 hr, Mean", "result": 99.6, "unit": "%"}, {"measurement": "viability at 0.00317 µM", "setting": "[1]; Homo sapiens, SW982, 144 h, 3.17 nM, read-out: % SW982 Viability Relative to Vehicle Control at 144 hr, Mean", "result": 97.2, "unit": "%"}, {"measurement": "viability at 0.01 µM", "setting": "[1]; Homo sapiens, SW982, 144 h, 10.0 nM, read-out: % SW982 Viability Relative to Vehicle Control at 144 hr, Mean", "result": 101, "unit": "%"}, {"measurement": "viability at 0.0317 µM", "setting": "[1]; Homo sapiens, SW982, 144 h, 31.7 nM, read-out: % SW982 Viability Relative to Vehicle Control at 144 hr, Mean", "result": 95.7, "unit": "%"}, {"measurement": "viability at 0.1 µM", "setting": "[1]; Homo sapiens, SW982, 144 h, 100 nM, read-out: % SW982 Viability Relative to Vehicle Control at 144 hr, Mean", "result": 96.4, "unit": "%"}, {"measurement": "viability at 0.317 µM", "setting": "[1]; Homo sapiens, SW982, 144 h, 317 nM, read-out: % SW982 Viability Relative to Vehicle Control at 144 hr, Mean", "result": 91.9, "unit": "%"}, {"measurement": "viability at 1 µM", "setting": "[1]; Homo sapiens, SW982, 144 h, 1000 nM, read-out: % SW982 Viability Relative to Vehicle Control at 144 hr, Mean", "result": 88.6, "unit": "%"}, {"measurement": "viability at 3.161 µM", "setting": "[1]; Homo sapiens, SW982, 144 h, 3161 nM, read-out: % SW982 Viability Relative to Vehicle Control at 144 hr, Mean", "result": 85.7, "unit": "%"}, {"measurement": "viability at 9.99 µM", "setting": "[1]; Homo sapiens, SW982, 144 h, 9990 nM, read-out: % SW982 Viability Relative to Vehicle Control at 144 hr, Mean", "result": 84.2, "unit": "%"}, {"measurement": "GI50", "setting": "[1]; Homo sapiens, SW982 cells, 144-hour treatment, read-out: Geometric Mean GI50", "result": "> 10", "unit": "µM"}, {"measurement": "Emax", "setting": "[1]; Homo sapiens, SW982 cells, 144-hour treatment, read-out: Mean Emax (%) ± SD", "result": "84.2 ± 4.6", "unit": "%"}, {"measurement": "growth inhibition at the highest concentration tested", "setting": "[1]; SW982 cells, 144-hour treatment", "result": "< 20", "unit": "%"}, {"measurement": "Comments: form after seeding", "setting": "[2]; 2-MeTHF, add Pattern G as seeds, slurry for 5 days", "result": "Pattern G"}, {"measurement": "Comments", "setting": "[2]; 2-MeTHF", "result": "Clear solution"}, {"measurement": "XRPD", "setting": "[2]; Acetone", "result": "Pattern B"}, {"measurement": "XRPD", "setting": "[2]; Ethanol", "result": "Pattern F"}, {"measurement": "XRPD", "setting": "[2]; Ethyl acetate", "result": "Pattern F"}, {"measurement": "Comments", "setting": "[2]; Methanol", "result": "Clear solution"}, {"measurement": "Comments", "setting": "[3]; vapor diffusion, 1,4-Dioxane/50, anti-solvent MTBE/600", "result": "Gum-like sample"}, {"measurement": "Comments", "setting": "[3]; vapor diffusion, 2-MeTHF/120, anti-solvent MTBE/1080", "result": "Gum-like sample"}, {"measurement": "Comments", "setting": "[3]; vapor diffusion, THF/50, anti-solvent MTBE/600", "result": "Gum-like sample"}]}
